Data taken from patent US20120053168A1, “FUSED BENZOAZEPINES AS NEURONAL NICOTINIC ACETYLCHOLINE RECEPTOR LIGANDS” (Targacept, Inc., priority 2009, published 2012).

Legend:
[1] = system: animals impaired with scopolamine; experiment: Radial Arm Maze (RAM) task, scopolamine-induced cognitive deficits; type: in vivo, rat; conditions: 3 mg/kg (15.1 μmol/kg) p.o.
Procedure: Working memory is a cognitive domain known to be impaired in schizophrenia; the Radial Arm Maze task is commonly used to assess potential cognitive benefit derived from the test compounds. Using this assay, Compound A (7,8,9,10-tetrahydro-6H-azepino[4,5-g]quinoxaline) attenuated cognitive deficits induced by scopolamine in an animal model of working memory. Working memory was assessed in a 3 trial radial arm maze (RAM) task. The RAM task was conducted using an automated eight-arm maze (Med Associates, Inc.) The maze was located on a circular table approximately 88 cm above the floor with overhead lighting in a dedicated testing room and large, high contrast geometric shapes on the wall. […] The central platform measured 30.5 cm in diameter with eight arms (9 cm W×45.7 cm L×16.8 cm H) radiating from it. […] Activity on the maze was monitored by tracking quantitative activity (generated by infra-red beam breaks) on the computer interface and monitor screen.
Following the baseline assessment on day 1 and after re-attainment of test session criterion, animals were assessed for their sensitivity to chemically-induced cognitive impairment using the muscarinic antagonist scopolamine (0.2-0.4 mg/kg; s.c.). A dose of scopolamine was determined for each animal based on the minimum dose that produced significant and reliable cognitive impairment. […]

Rat α4β2 nAChR subtype = target: T1, Rat α4β2 nAChR subtype (Rattus norvegicus, UniProt P09483+P12390); experiment: [3H]nicotine radioligand binding, membranes from rat cortex
T1 construct: from tissue; host or cells: rat cerebral cortex membranes (female Sprague-Dawley)
Procedure: Preparation of membranes from rat cortex: Rats (female, Sprague-Dawley), weighing 150-250 g, were maintained on a 12 h light/dark cycle and were allowed free access to water and food supplied by PMI Nutrition International, Inc. Animals were anesthetized with 70% CO2, and then decapitated. Brains were removed and placed on an ice-cold platform. The cerebral cortex was removed and placed in 20 volumes (weight:volume) of ice-cold preparative buffer (137 mM NaCl, 10.7 mM KCl, 5.8 mM KH2PO4, 8 mM Na2HPO4, 20 mM HEPES (free acid), 5 mM iodoacetamide, 1.6 mM EDTA, pH 7.4); PMSF, dissolved in methanol to a final concentration of 100 μM, was added and the suspension was homogenized by Polytron. The homogenate was centrifuged at 18,000×g for 20 min at 4° C. and the resulting pellet was re-suspended in 20 volumes of ice-cold water. After 60 min incubation on ice, a new pellet was collected by centrifugation at 18,000×g for 20 min at 4° C. The final pellet was re-suspended in 10 volumes of buffer and stored at ˜20° C.
On the day of the assay, the frozen membranes were thawed and spun at 48,000×g for 20 min. The supernatant was decanted and discarded. The pellet was resuspended in Dulbecco's phosphate buffered saline (PBS, Life Technologies) pH 7.4 and homogenized with the Polytron for 6 seconds. Protein concentrations were determined using a Pierce BCA Protein Assay Kit, with bovine serum albumin as the standard (Pierce Chemical Company, Rockford, Ill.).
Assay: Membrane preparations (approximately 50 μg for human and 200-300 μg protein for rat α4β2) were incubated in PBS (50 μL and 100 μL respectively) in the presence of competitor compound (0.01 nM to 100 μM) and 5 nM [^3H]nicotine for 2-3 hours on ice. Incubation was terminated by rapid filtration on a multi-manifold tissue harvester (Brandel, Gaithersburg, Md.) using GF/B filters presoaked in 0.33% polyethyleneimine (w/v) to reduce non-specific binding. Tissue was rinsed 3 times in PBS, pH 7.4. Scintillation fluid was added to filters containing the washed tissue and allowed to equilibrate. Filters were then counted to determine radioactivity bound to the membranes by liquid scintillation counting (2200CA Tri-Carb LSC, Packard Instruments, 50% efficiency or Wallac Trilux 1450 MicroBeta, 40% efficiency, Perkin Elmer).
Data were expressed as disintegrations per minute (DPMs). Within each assay, each point had 2-3 replicates. The replicates for each point were averaged and plotted against the log of the drug concentration. IC50, which is the concentration of the compound that produces 50% inhibition of binding, was determined by least squares non-linear regression. Ki values were calculated using the Cheng-Prussof equation (1973): […]
where N is the concentration of [^3H]nicotine and Kd is the affinity of nicotine (3 nM, determined in a separate experiment).

[2] = system: mice impaired with scopolamine; experiment: Morris Water Maze (MWM) task, scopolamine-impaired; type: in vivo; conditions: 1 mg/kg (5 μmol/kg) p.o., scopolamine 0.75 mg/kg s.c.
Procedure: In an animal model of spatial memory, the efficacy of Compound A (7,8,9,10-tetrahydro-6H-azepino[4,5-g]quinoxaline) to attenuate water-maze performances of mice impaired with scopolamine (0.75 mg/kg, s.c.) was evaluated. Following a two-day acclimation period to the maze, mice were trained for 4 days to a platform location in the maze. During the training sessions, each animal was given four trials separated by 5 minutes between each trial. The platform location was constant for each animal. Compound A (1, 3 and 10 mg/kg or 5, 15.1 and 50 μmol/kg, p.o.) was administered 25 minutes prior to each of the four training days. Scopolamine was administered 15 minutes prior to each of the four training days. The probe trial (i.e., no platform present) was conducted on day 5 under drug-free (i.e., water instead of Compound A and saline instead of scopolamine) conditions. In the MWM model, Compound A (1, 3 and 10 mg/kg) was orally administered 25 minutes whereas scopolamine was subcutaneously administered 15 minutes prior to each of the four training days. During training days, each animal was given four trials separated by 5 minutes between trials. The probe trial was conducted on day 5 under drug-free (i.e., water instead of Compound A and saline instead of scopolamine) conditions.

T1 sequence (P09483 31-630): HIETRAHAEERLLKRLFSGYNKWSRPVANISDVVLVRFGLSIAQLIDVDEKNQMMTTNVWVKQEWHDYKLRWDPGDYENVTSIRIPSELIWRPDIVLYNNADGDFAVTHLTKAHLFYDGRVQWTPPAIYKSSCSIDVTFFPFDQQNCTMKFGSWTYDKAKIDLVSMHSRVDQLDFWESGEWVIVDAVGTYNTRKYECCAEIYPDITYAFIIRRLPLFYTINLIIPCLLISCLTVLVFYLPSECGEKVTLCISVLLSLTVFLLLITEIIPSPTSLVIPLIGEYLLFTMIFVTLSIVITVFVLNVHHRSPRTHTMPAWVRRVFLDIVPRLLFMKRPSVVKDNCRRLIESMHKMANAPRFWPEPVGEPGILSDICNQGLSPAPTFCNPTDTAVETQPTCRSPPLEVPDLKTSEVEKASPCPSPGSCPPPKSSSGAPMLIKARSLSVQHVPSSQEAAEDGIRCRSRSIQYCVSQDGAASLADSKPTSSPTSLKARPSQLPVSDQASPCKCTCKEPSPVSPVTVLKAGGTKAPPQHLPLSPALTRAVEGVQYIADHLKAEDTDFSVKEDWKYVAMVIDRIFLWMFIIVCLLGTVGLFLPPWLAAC
T1 sequence (P12390 25-500): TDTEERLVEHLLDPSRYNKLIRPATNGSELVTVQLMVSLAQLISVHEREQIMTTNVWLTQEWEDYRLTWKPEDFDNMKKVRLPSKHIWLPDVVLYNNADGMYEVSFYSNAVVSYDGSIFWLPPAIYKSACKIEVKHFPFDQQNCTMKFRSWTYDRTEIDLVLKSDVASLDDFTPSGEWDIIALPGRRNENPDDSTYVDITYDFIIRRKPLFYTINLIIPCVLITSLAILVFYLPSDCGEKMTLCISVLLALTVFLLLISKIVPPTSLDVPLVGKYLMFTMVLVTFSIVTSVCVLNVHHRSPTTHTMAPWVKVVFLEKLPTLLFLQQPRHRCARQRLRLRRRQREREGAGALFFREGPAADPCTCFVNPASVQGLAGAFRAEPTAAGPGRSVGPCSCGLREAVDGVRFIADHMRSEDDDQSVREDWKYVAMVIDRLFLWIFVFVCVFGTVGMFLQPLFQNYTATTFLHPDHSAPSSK

c1cnc2cc3c(cc2n1)CCNCC3 [Compound A, 7,8,9,10-tetrahydro-6H-azepino[4,5-g]quinoxaline]
effect on scopolamine-induced cognitive deficits, RAM [1]: attenuated scopolamine-induced cognitive deficits
Ki (Rat α4β2 nAChR subtype): 17 nM
effect on scopolamine-induced cognitive deficits, MWM [2]: reverse scopolamine-induced cognitive deficits
